Laboratory results reported in the NIST ThermoML archive (doi:10.1021/acs.jced.7b00106).
Numbers after ± are expanded uncertainties.

Conditions: Hot wire method

FC(F)(F)/C=C/Cl [(E)-1-chloro-3,3,3-trifluoroprop-1-ene]
Conditions	thermal conductivity [W/m/K]
422.34 K, 6615 kPa, Liquid	0.05507 ± 0.0016
422.35 K, 1562 kPa, Fluid (supercritical or subcritical phases)	0.02132 ± 0.0061
422.37 K, 5710 kPa, Liquid	0.054 ± 0.0022
422.38 K, 5711 kPa, Liquid	0.05406 ± 0.0015
422.4 K, 4942 kPa, Liquid	0.05308 ± 0.0016
422.42 K, 802 kPa, Fluid (supercritical or subcritical phases)	0.02084 ± 0.0013
422.42 K, 1401 kPa, Fluid (supercritical or subcritical phases)	0.0211 ± 0.0043
422.42 K, 4947 kPa, Liquid	0.05316 ± 0.0045
422.43 K, 1403 kPa, Fluid (supercritical or subcritical phases)	0.02113 ± 0.0024
422.44 K, 4300 kPa, Liquid	0.05228 ± 0.0033
422.44 K, 4307 kPa, Liquid	0.05231 ± 0.0024
422.45 K, 3760 kPa, Liquid	0.05158 ± 0.0038
422.45 K, 3761 kPa, Liquid	0.05162 ± 0.0038
422.48 K, 2616 kPa, Liquid	0.05022 ± 0.0044
422.48 K, 2911 kPa, Liquid	0.05073 ± 0.0075
422.48 K, 3308 kPa, Liquid	0.05108 ± 0.0047
422.48 K, 3310 kPa, Liquid	0.05105 ± 0.0047
422.49 K, 1222 kPa, Fluid (supercritical or subcritical phases)	0.02095 ± 0.003
422.49 K, 2914 kPa, Liquid	0.05068 ± 0.0048
422.5 K, 1220 kPa, Fluid (supercritical or subcritical phases)	0.02096 ± 0.0031
422.52 K, 28114 kPa, Liquid	0.07065 ± 0.0043
422.54 K, 8781 kPa, Liquid	0.05725 ± 0.0012
422.54 K, 28086 kPa, Liquid	0.07055 ± 0.0034
422.55 K, 7612 kPa, Liquid	0.0561 ± 0.0029
422.55 K, 8782 kPa, Liquid	0.05725 ± 0.0013
422.56 K, 28121 kPa, Liquid	0.0704 ± 0.0019
422.57 K, 1031 kPa, Fluid (supercritical or subcritical phases)	0.02086 ± 0.0028
422.57 K, 1032 kPa, Fluid (supercritical or subcritical phases)	0.02088 ± 0.003
422.57 K, 6610 kPa, Liquid	0.0551 ± 0.00065
422.58 K, 6615 kPa, Liquid	0.05511 ± 0.0015
422.58 K, 28093 kPa, Liquid	0.07032 ± 0.0027
422.61 K, 5714 kPa, Liquid	0.05406 ± 0.00091
422.62 K, 5709 kPa, Liquid	0.05406 ± 0.0009
422.66 K, 4943 kPa, Liquid	0.05316 ± 0.0023
422.66 K, 4946 kPa, Liquid	0.05333 ± 0.0022
422.67 K, 800 kPa, Fluid (supercritical or subcritical phases)	0.02086 ± 0.0011
422.69 K, 11667 kPa, Liquid	0.05975 ± 0.00074
422.7 K, 4304 kPa, Liquid	0.05243 ± 0.0027
422.7 K, 4305 kPa, Liquid	0.05239 ± 0.0037
422.71 K, 3758 kPa, Liquid	0.05174 ± 0.0045
422.71 K, 3761 kPa, Liquid	0.05177 ± 0.0048
422.72 K, 20061 kPa, Liquid	0.0657 ± 0.00077
422.73 K, 3307 kPa, Liquid	0.0512 ± 0.0041
422.73 K, 3310 kPa, Liquid	0.05125 ± 0.0067
422.74 K, 10145 kPa, Liquid	0.0585 ± 0.0023
422.78 K, 17484 kPa, Liquid	0.06408 ± 0.00072
422.79 K, 8779 kPa, Liquid	0.05724 ± 0.00068
422.79 K, 8783 kPa, Liquid	0.05727 ± 0.00068
422.79 K, 17485 kPa, Liquid	0.06404 ± 0.00093
422.79 K, 25690 kPa, Liquid	0.06898 ± 0.001
422.8 K, 7613 kPa, Liquid	0.05618 ± 0.0015
422.8 K, 7618 kPa, Liquid	0.05616 ± 0.0015
422.8 K, 25708 kPa, Liquid	0.06904 ± 0.0028
422.8 K, 28111 kPa, Liquid	0.07046 ± 0.004
422.8 K, 28112 kPa, Liquid	0.07051 ± 0.0039
422.82 K, 15379 kPa, Liquid	0.06258 ± 0.00071
422.83 K, 6608 kPa, Liquid	0.05508 ± 0.001
422.83 K, 6614 kPa, Liquid	0.05515 ± 0.001
422.83 K, 28116 kPa, Liquid	0.07034 ± 0.00099
422.84 K, 15382 kPa, Liquid	0.06256 ± 0.0013
422.84 K, 28116 kPa, Liquid	0.07035 ± 0.00099
422.86 K, 22725 kPa, Liquid	0.06729 ± 0.0073
422.87 K, 5712 kPa, Liquid	0.0541 ± 0.0021
422.87 K, 5716 kPa, Liquid	0.05417 ± 0.0021
422.87 K, 22727 kPa, Liquid	0.06729 ± 0.011
422.89 K, 13389 kPa, Liquid	0.06114 ± 0.0007
422.89 K, 13396 kPa, Liquid	0.0611 ± 0.0019
422.92 K, 4948 kPa, Liquid	0.05329 ± 0.00074
422.93 K, 4948 kPa, Liquid	0.05326 ± 0.00074
422.93 K, 11677 kPa, Liquid	0.05979 ± 0.00072
422.94 K, 11666 kPa, Liquid	0.05974 ± 0.00068
422.96 K, 4303 kPa, Liquid	0.05247 ± 0.0015
422.96 K, 4305 kPa, Liquid	0.05253 ± 0.0032
422.96 K, 20042 kPa, Liquid	0.06564 ± 0.0037
422.97 K, 20051 kPa, Liquid	0.06568 ± 0.0014
423 K, 10141 kPa, Liquid	0.05847 ± 0.00068
423 K, 10146 kPa, Liquid	0.05853 ± 0.00068
423 K, 25690 kPa, Liquid	0.06899 ± 0.00079
423.02 K, 28110 kPa, Liquid	0.07042 ± 0.0022
423.03 K, 28120 kPa, Liquid	0.07037 ± 0.00086
423.04 K, 17472 kPa, Liquid	0.06399 ± 0.002
423.04 K, 17483 kPa, Liquid	0.06401 ± 0.00088
423.05 K, 25698 kPa, Liquid	0.06896 ± 0.00087
423.06 K, 8781 kPa, Liquid	0.05726 ± 0.00088
423.06 K, 8783 kPa, Liquid	0.05728 ± 0.00068
423.07 K, 7608 kPa, Liquid	0.05614 ± 0.0007
423.07 K, 7616 kPa, Liquid	0.05619 ± 0.00075
423.07 K, 15379 kPa, Liquid	0.06256 ± 0.00085
423.08 K, 15382 kPa, Liquid	0.06257 ± 0.00085
423.1 K, 6613 kPa, Liquid	0.05516 ± 0.001
423.11 K, 6611 kPa, Liquid	0.05515 ± 0.001
423.11 K, 22703 kPa, Liquid	0.06725 ± 0.0011
423.11 K, 28104 kPa, Liquid	0.07029 ± 0.0024
423.12 K, 22728 kPa, Liquid	0.06757 ± 0.00082
423.12 K, 28121 kPa, Liquid	0.07049 ± 0.0008
423.14 K, 5716 kPa, Liquid	0.05419 ± 0.0019
423.15 K, 5712 kPa, Liquid	0.0542 ± 0.0023
423.15 K, 13390 kPa, Liquid	0.06109 ± 0.00084
423.15 K, 13399 kPa, Liquid	0.06114 ± 0.00072
423.2 K, 4943 kPa, Liquid	0.05335 ± 0.003
423.2 K, 4945 kPa, Liquid	0.0533 ± 0.0015
423.2 K, 11667 kPa, Liquid	0.05975 ± 0.0027
423.21 K, 11671 kPa, Liquid	0.05977 ± 0.00079
423.21 K, 20041 kPa, Liquid	0.06545 ± 0.00085
423.21 K, 20058 kPa, Liquid	0.06566 ± 0.00096
423.26 K, 25692 kPa, Liquid	0.06895 ± 0.00089
423.26 K, 25702 kPa, Liquid	0.06897 ± 0.00091
423.27 K, 10146 kPa, Liquid	0.05849 ± 0.00098
423.28 K, 10147 kPa, Liquid	0.05852 ± 0.00098
423.29 K, 17476 kPa, Liquid	0.06396 ± 0.0035
423.3 K, 17478 kPa, Liquid	0.064 ± 0.0034
423.3 K, 28106 kPa, Liquid	0.07034 ± 0.0012
423.31 K, 28126 kPa, Liquid	0.07033 ± 0.0038
423.32 K, 8771 kPa, Liquid	0.05728 ± 0.0011
423.33 K, 8783 kPa, Liquid	0.05728 ± 0.00086
423.35 K, 7611 kPa, Liquid	0.05616 ± 0.0013
423.35 K, 7616 kPa, Liquid	0.05621 ± 0.0013
423.35 K, 15369 kPa, Liquid	0.06251 ± 0.00073
423.35 K, 15382 kPa, Liquid	0.06259 ± 0.00078
423.37 K, 22716 kPa, Liquid	0.06724 ± 0.0051
423.37 K, 22722 kPa, Liquid	0.06728 ± 0.008
423.38 K, 6613 kPa, Liquid	0.0552 ± 0.0011
423.38 K, 28103 kPa, Liquid	0.07024 ± 0.0011
423.39 K, 28113 kPa, Liquid	0.07028 ± 0.0041
423.4 K, 6606 kPa, Liquid	0.05518 ± 0.001
423.43 K, 13394 kPa, Liquid	0.06111 ± 0.00071
423.44 K, 5711 kPa, Liquid	0.05425 ± 0.0016
423.44 K, 5715 kPa, Liquid	0.05429 ± 0.0026
423.44 K, 13394 kPa, Liquid	0.06111 ± 0.00071
423.48 K, 20043 kPa, Liquid	0.06561 ± 0.0024
423.48 K, 20053 kPa, Liquid	0.06564 ± 0.00096
423.49 K, 11667 kPa, Liquid	0.05991 ± 0.0007
423.49 K, 11670 kPa, Liquid	0.05977 ± 0.00087
423.54 K, 25699 kPa, Liquid	0.06893 ± 0.0019
423.55 K, 25702 kPa, Liquid	0.06894 ± 0.0019
423.56 K, 10145 kPa, Liquid	0.05848 ± 0.00087
423.56 K, 10147 kPa, Liquid	0.05849 ± 0.00087
423.57 K, 17456 kPa, Liquid	0.06393 ± 0.00072
423.57 K, 17477 kPa, Liquid	0.0642 ± 0.00093
423.6 K, 28105 kPa, Liquid	0.07025 ± 0.00085
423.62 K, 8777 kPa, Liquid	0.05731 ± 0.00086
423.62 K, 28121 kPa, Liquid	0.07026 ± 0.0015
423.63 K, 8770 kPa, Liquid	0.05731 ± 0.00072
423.63 K, 15380 kPa, Liquid	0.06255 ± 0.001
423.64 K, 15380 kPa, Liquid	0.06256 ± 0.001
